According to patent US20210177889A1, “GASEOUS PHARMACEUTICAL COMPOSITION FOR HYPERTENSION THERAPY” (KEIO UNIVERSITY, priority 2019, published 2021):

Assays:
[1] = tested on: autonomic nervous system activity; assay: Spectral analysis of blood pressure variability (autonomic nervous system) in 5/6 nephrectomized rats; type: in vivo, Lewis rat
Method: Heart rate variability was analyzed using telemetry system software (Ponemah Ver. 6.3, Data Science International). Frequency domain analysis (sampling rate of 500 Hz; very low frequency (VLF) (0.05-0.25 Hz); low frequency (LF) (0.25-1.0 Hz); and high frequency (HF) (1.0-3.0 Hz)) was carried out using the arterial pressure waveform data of the first one minute of every five minutes (about 300 to 400 beats). In heart rate variability analysis, data recorded in the first 15 minutes was excluded, and effective data in the first one minute out of a block of every 5 minutes was used. LF and HF each reflected the sympathetic nerve component and the parasympathetic nerve component (Akselrod, S. et al. Power spectrum analysis of heart rate fluctuation: a quantitative probe of beat-to-beat cardiovascular control. Science 213, 220-222 (1981); Pagani, M. et al. Power spectral analysis of heart rate and arterial pressure variabilities as a marker of sympatho-vagal interaction in man and conscious dog. Circ. Res. 59, 178-193 (1986); and Montano, N. et al. Power spectrum analysis of heart rate variability to assess the changes in sympathovagal balance during graded orthostatic tilt. Circulation 90, 1826-1831 (1994)). LF/HF ratio and HF/(LF+HF) were each handled as indicators of sympathetic nerve activity and parasympathetic nerve activity (Heart rate variability: standards of measurement, physiological interpretation and clinical use. Task Force of the European Society of Cardiology and the North American Society of Pacing and Electrophysiology. Circulation 93, 1043-1065 (1996); and Pagani, M. et al. Relationship between spectral components of cardiovascular variabilities and direct measures of muscle sympathetic nerve activity in humans. Circulation 95, 1441-1448 (1997)).
H2 gas (1.3% H2+21% O2+77.7 N2) and control gas (21% O2+79% N2) were filled into gas cylinders in advance at a factory. The H2 group and the control group were allowed to inhale the H2 gas and the control gas that were mixed in advance. […]

[2] = tested on: hypertension attributed to 5/6 nephrectomy; assay: Prophylactic effect of one hour daily H2 inhalation after 5/6 nephrectomy, invasive arterial blood pressure at 4 weeks; type: in vivo, Lewis rat; details: four weeks after 5/6 nephrectomy; 1.3% H2 inhaled one hour daily from immediately after nephrectomy; N=3; mean±SE; P=0.02 vs control gas (134.1±3.3)
Method: Invasive blood pressure measurement was performed 4 weeks after gas inhalation. An arterial catheter (PE50, Natsume) was inserted under isoflurane inhalation into the left femoral artery, and arterial blood pressure was measured (DX-360, Nihon Kohden). In order to elicit renal hypertension, 5/6 nephrectomy was carried out with slight modification to previously described methods (Nephrology (Carlton) 19, 552-561; 10.1111/nep.12279 (2014); J. Am. Soc. Nephrol. 4, 2023-2031 (1994); and Kidney Int. 40, 29-34; 10.1038/ki.1991.175 (1991).). Briefly, rats were anesthetized by isoflurane inhalation (induction at 4% and maintenance at 1.5%), and upper midline laparotomy of about 4 cm was carried out. Surgical operation was performed under a microscope, the left renal artery branch was identified, and selectively ligated with 7-0 silk at a position as close as possible to the left kidney so that macroscopic infarction is caused in about ⅔ of the left renal cortex. In the first pilot research (FIGS. 1a and 2), a high-temperature cautery pen (AA11, Bovie, Tenn., U.S.A.) was used to add the resection of the infarcted portion of the kidney. Subsequently, the right renal artery, the renal vein, and the urinary duct was ligated with 4-0 silk, and the right kidney were resected. The abdominal wall and the skin were closed with a 4-0 nylon thread. […]

[3] = baseline (day 0) to 4 weeks after starting H2 inhalation, vs control 5/6 nephrectomy group

Compound: [2H][2H] [H2 gas, Molecular hydrogen (H2)]
- decrease in HF power (normalised units), change from baseline [1, 3]: significantly suppressed
- increase in LF power (normalised units), change from baseline [1, 3]: significantly suppressed
- increase in LF power and decrease in HF power, compared as continuous variables ([1]; over a 4-week time course, tendency to be suppressed): not significant
- mean arterial pressure (MAP) [2]: 94.2±10.3 mmHg
